Drawing on US10633407B2, “14-membered ketolides and methods of their preparation and use” (President and Fellows of Harvard College, priority 2014, dated 2020), this text covers MIC for 3 molecules.

The structures appear in SMILES notation. Converted amounts (≈) assume the structure as drawn.

Test in all cases: CLSI broth dilution MIC determination
Holding throughout (type): cell-based
A general note: Dilution methods test growth across graded concentrations, often in twofold steps.

In experiment [1] the test system is K. pneumoniae ATCC 10031.
Experiment [2] relates to K. pneumoniae MP-546 Clinical-MDR.
The subject of experiment [3] is A. baumannii ATCC 19606.
Experiment [4] concerns A. baumannii MP-576 Clinical-MDR.
Experiment [5] deals with A. baumannii MP-577 Clinical-AZT low.
The test system of experiment [6] is P. aeruginosa MP-8 PAO1:mex (mex-oprM-deletion). Conditions: P. aeruginosa MP-8, PAO1:mex, mex-oprM-deletion.
Experiment [7] deals with S. aureus (MRSA) MP-513 ST-228 cErm (Clinical-cErm). The source says: (§1) MIC data was collected for the novel macrolides that this platform has produced against over 21 unique strains of B. subtilis, E. coli, S. aureus, S. pneumoniae, and H. influenzae, including several multidrug-resistant strains, with a special focus on macrolide resistant mechanisms (vide supra). Azithromycin (Azithro) and Solithromycin (Solithro) were included as a control macrolides in many cases. CLSI standard procedures for broth dilution MIC determination were used. […] These genotypes can be constitutive or inducible.

The subject of experiment [8] is E. coli MP-9 ATCC25922:tolC. The conditions noted are these: E. coli MP-9, ATCC25922:tolC.
Excerpt: as §1

Experiment [9] deals with E. coli MP-532 clinical-cErmB. Conditions: E. coli MP-532, clinical-cErmB.
Excerpt: as §1

In experiment [10] the test system is S. aureus ATCC 29213.
Excerpt: as §1

For experiment [11], the system named is E. coli MP-541 clinical.
Excerpt: as §1

Experiment [12] relates to E. coli ATCC 25922.
Excerpt: as §1

Experiment [13] deals with S. aureus MRSA: USA300.
Excerpt: as §1

The subject of experiment [14] is S. aureus MP-17 ATCCBAA-977 (BAA 977 iErm). The conditions noted are these: S. aureus MP-17, ATCCBAA-977, iErm.
Excerpt: as §1

The subject of experiment [15] is P. aeruginosa MP-7 PAO1.
Experiment [16] relates to K. pneumoniae MP-548 clinical.
In experiment [17] the test system is P. aeruginosa ATCC 27853.
Experiment [18] relates to E. faecalis Vancomycin-resistant. The conditions noted are these: E. faecalis Vancomycin-resistant; Gram-positive.
The test system of experiment [19] is P. aeruginosa HPA101-1477. The conditions noted are these: Gram-negative.
The subject of experiment [20] is S. pyogenes ATCC 19615. Conditions: S. pyogenes ATCC 19615; Gram-positive.
In experiment [21] the test system is H. influenzae Erythro >4, Azithro 1. Conditions: H. influenzae Erythro >4, Azithro 1; Gram-negative. The text has this: MIC data was collected for the novel macrolides that this platform has produced against over 21 unique strains of B. subtilis, E. coli, S. aureus, S. pneumoniae, and H. influenzae, including several multidrug-resistant strains, with a special focus on macrolide resistant mechanisms (vide supra). […] CLSI standard procedures for broth dilution MIC determination were used. […] These genotypes can be constitutive or inducible.

The subject of experiment [22] is E. faecalis ATCC 29212. The conditions noted are these: E. faecalis ATCC 29212; Gram-positive.
Experiment [23] has as its system A. baumannii IMP-4. The conditions noted are these: Gram-negative.
In experiment [24] the test system is K. pneumoniae KPC-2. Conditions: Gram-negative.
Experiment [25] deals with A. baumannii imipenem-resistant. Conditions: Gram-negative.
Experiment [26] relates to A. baumannii chromosomal class C. Conditions: Gram-negative.
For experiment [27], the system named is E. coli NDM-1. The conditions noted are these: Gram-negative.
Excerpt: as §1

In experiment [28] the test system is H. influenzae ATCC49247. Conditions: Gram-negative.
Excerpt: as §1

The subject of experiment [29] is S. aureus erm A genotype. The conditions noted are these: S. aureus erm A genotype; Gram-positive.
Excerpt: as §1

For experiment [30], the system named is S. aureus USA600, GISA. Conditions: S. aureus USA600, GISA; Gram-positive.
Excerpt: as §1

For experiment [31], the system named is E. coli TEM-1. Conditions: E. coli TEM-1; Gram-negative.
Excerpt: as §1

The test system of experiment [32] is S. pneumoniae mef A genotype (second strain so labelled). Conditions: Gram-positive.
Excerpt: as §1

Experiment [33] deals with E. coli CTX-M-14. Conditions: Gram-negative.
Excerpt: as §1

Experiment [34] deals with S. aureus MRSA: USA100. Conditions: S. aureus MRSA: USA100; Gram-positive.
Excerpt: as §1

The test system of experiment [35] is S. pneumoniae ATCC 49619. Conditions: S. pneumoniae ATCC 49619; Gram-positive.
Excerpt: as §1

Experiment [36] has as its system K. pneumoniae TEM-10. The conditions noted are these: Gram-negative.
Excerpt: as §1

The test system of experiment [37] is S. pyogenes Macrolide-resistant. The conditions noted are these: S. pyogenes Macrolide-resistant; Gram-positive.
The subject of experiment [38] is K. pneumoniae SHV-12. Conditions: Gram-negative.
[39] abbreviates: K. pneumoniae ATCC 10031, Gram-negative.
The mark [40] stands for this setting: A. baumannii ATCC 19606, Gram-negative.
Setting [41] is: S. aureus ATCC 29213, Gram-positive.
The mark [42] stands for this setting: E. coli ATCC 25922, Gram-negative.
Setting [43] is: S. aureus MRSA: USA300, Gram-positive.
The mark [44] stands for this setting: P. aeruginosa ATCC 27853, Gram-negative.

Regarding `CCC1OC(=O)C(C)(F)C(=O)C(C)C(OC2OC(C)CC(N(C)C)C2O)C(C)(OC)CC(C)C(=O)C(C)C2N(CC=C=Cn3cc(-c4cnccn4)nn3)C(=O)OC12C` (centres unmarked) [FSM-22740], the MIC in experiment [1] (K. pneumoniae ATCC 10031 (MP-14)) is 8 µg/mL (≈ 9.66 µM); in experiment [2], above 64 µg/mL; in experiment [3] (A. baumannii ATCC 19606 (MP-15)), 16 µg/mL (≈ 19.3 µM); in experiment [4], above 64 µg/mL; in experiment [5], 64 µg/mL (≈ 77.3 µM); in [6] it was 16 µg/mL (≈ 19.3 µM). For the same molecule, the MIC in experiment [7] was 64 µg/mL (≈ 77.3 µM); in experiment [8], 2 µg/mL (≈ 2.42 µM); in [9], above 64 µg/mL; in [10] (S. aureus ATCC 29213 (MP-12)), 0.25 µg/mL (≈ 0.302 µM); in experiment [11] it was 16 µg/mL (≈ 19.3 µM); in [12] (E. coli ATCC 25922 (MP-4)) it was 16 µg/mL (≈ 19.3 µM). The MIC in experiment [13] (S. aureus MRSA: USA300 (MP-549, msr(a))) is 0.25 µg/mL (≈ 0.302 µM); in experiment [14], 0.25 µg/mL (≈ 0.302 µM); in experiment [15], above 64 µg/mL; in [16], above 64 µg/mL; in experiment [17] (P. aeruginosa ATCC 27853 (MP-3)), above 64 µg/mL.

Turning to `CC[C@H]1OC(=O)[C@@](C)(F)C(=O)[C@H](C)[C@@H](O[C@@H]2OC(C)CC(N(C)C)C2O)[C@](C)(OC)C[C@@H](C)C(=O)[C@H](C)[C@H]2N(C/C=C/Cn3cc(-c4cccc(N)n4)nn3)C(=O)O[C@]12C` (some centres unmarked) [FSM-100407], the MIC in [18] is 16 µg/mL (≈ 19 µM); in experiment [19], above 32 µg/mL; in experiment [1] (setting [39]), 4 µg/mL (≈ 4.74 µM); in experiment [20] it was below 0.0312 µg/mL; in experiment [21], 1 µg/mL (≈ 1.18 µM); in [3] (setting [40]) it was 8 µg/mL (≈ 9.48 µM). Also, the MIC in experiment [22] is below 0.0312 µg/mL; in experiment [23], above 32 µg/mL; in [24], above 32 µg/mL; in experiment [25], 8 µg/mL (≈ 9.48 µM); in experiment [26] it was 8 µg/mL (≈ 9.48 µM); in [27], above 32 µg/mL. Moreover, the MIC in [28] is 1 µg/mL (≈ 1.18 µM); in [10] (setting [41]), below 0.0312 µg/mL; in [29], above 32 µg/mL; in experiment [30], above 32 µg/mL; in experiment [31], above 32 µg/mL; in experiment [32] it was below 0.0312 µg/mL. The MIC in experiment [12] (setting [42]) was 16 µg/mL (≈ 19 µM); in experiment [13] (setting [43]), 0.5 µg/mL (≈ 0.592 µM); in experiment [33] it was above 32 µg/mL; in experiment [34] it was above 32 µg/mL; in experiment [35], below 0.0312 µg/mL; in experiment [36], 32 µg/mL (≈ 37.9 µM). Also, the MIC in experiment [17] (setting [44]) is 32 µg/mL (≈ 37.9 µM); in [37] it was below 0.0312 µg/mL; in [38], above 32 µg/mL.

For the molecule `CC[C@H]1OC(=O)[C@@](C)(F)C(=O)[C@H](C)[C@@H](O[C@@H]2OC(C)CC(N(C)C)C2O)[C@](C)(OC)C[C@@H](C)C(=O)[C@H](C)[C@H]2N(C/C=C/Cn3cc(-c4ccccn4)nn3)C(=O)O[C@]12C` (some centres unmarked) [FSM-100383], the MIC in experiment [18] was above 32 µg/mL; in experiment [19], above 32 µg/mL; in experiment [1] (setting [39]), 2 µg/mL (≈ 2.41 µM); in [20], below 0.0312 µg/mL; in experiment [21] it was 0.5 µg/mL (≈ 0.603 µM); in experiment [3] (setting [40]), 4 µg/mL (≈ 4.83 µM). Besides, the MIC in experiment [22] is below 0.0312 µg/mL; in experiment [23] it was above 32 µg/mL; in experiment [24], above 32 µg/mL; in [25], 8 µg/mL (≈ 9.65 µM); in [26], 8 µg/mL (≈ 9.65 µM); in [27] it was 32 µg/mL (≈ 38.6 µM). For the same molecule, the MIC in experiment [28] is 0.5 µg/mL (≈ 0.603 µM); in experiment [10] (setting [41]), below 0.0312 µg/mL; in experiment [29], above 32 µg/mL; in experiment [30], above 32 µg/mL; in experiment [31] it was 16 µg/mL (≈ 19.3 µM); in experiment [32], below 0.0312 µg/mL. For the same molecule, the MIC in experiment [12] (setting [42]) was 8 µg/mL (≈ 9.65 µM); in experiment [13] (setting [43]), 0.5 µg/mL (≈ 0.603 µM); in [33], above 32 µg/mL; in [34], above 32 µg/mL; in experiment [35] it was below 0.0312 µg/mL; in experiment [36] it was 16 µg/mL (≈ 19.3 µM). Also, the MIC in [17] (setting [44]) is above 32 µg/mL; in experiment [37], below 0.0312 µg/mL; in experiment [38], above 32 µg/mL.
